Experimental data as given in US10689383B2, “Optionally fused heterocyclyl-substituted derivatives of pyrimidine useful for the treatment of inflammatory, metabolic, oncologic and autoimmune diseases” (NUEVOLUTION A/S, priority 2014, dated 2020).
pIC50: −log10 of the molar value.

Tests used:
[1] = molecular target: T1, human RORγt (Ligand Binding Domain) (Homo sapiens, UniProt P51449); test: Fluorescence Polarization (FP) Assay; conditions: Fluorescence Polarization (FP) Assay; values given as upper bounds of activity ranges; read-out: FP activity range
T1 construct: purchased Crelux (Planegg, Germany) batch no PC5032-1
T1 sequence (P51449 269-508 limits assumed): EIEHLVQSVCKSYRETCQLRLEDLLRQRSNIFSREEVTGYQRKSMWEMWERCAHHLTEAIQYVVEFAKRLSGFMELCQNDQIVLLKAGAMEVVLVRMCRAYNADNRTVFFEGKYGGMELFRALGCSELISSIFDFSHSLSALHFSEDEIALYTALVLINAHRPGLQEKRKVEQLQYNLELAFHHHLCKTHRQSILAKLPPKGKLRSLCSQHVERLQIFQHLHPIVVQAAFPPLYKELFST
Outline: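 Binding to the ligand pocket followed by fluorescence polarization with a TAMRA-tagged RORγt ligand probe of 910 g/mole. Negative control wells received DMSO only.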

[2] = molecular target: T2, yeast Gal4-DNA binding domain fused to the ligand binding domain of human RORγ (Homo sapiens, UniProt P51449); test: RORγ Reporter Assay (Gal4); format: cell-based; conditions: values given as lower bounds of ranges; for Gal4 activity range @ 1 μM (% inhibition): RORγ Reporter Assay (Gal4) at 1 μM; for Gal4 activity range @ 0.1 μM (% inhibition): RORγ Reporter Assay (Gal4) at 0.1 μM
T2 construct: host or cells: HEK293t
T2 sequence (P51449 269-508 limits assumed): T1 sequence (P51449 269-508 limits assumed)
Protocol: The activity of the compounds was evaluated using a Fluorescence Polarization (FP) Assay and, in most cases, a Th17 Assay and/or RORγ Reporter assay (also referred to as Gal4 assay). The FP assay is an in vitro assay monitoring binding within the ligand binding pocket. The RORγ and the Th17 assays are both cell-based assays monitoring functional activity of the compound assayed.
Cell-based RORγ functional assays were performed using a commercially available assay product (INDIGO Biosciences, State College, Pa., USA; product # IB04001). The RORγ reporter cells are HEK293t cells transfected with one vector that provides high level constitutive expression of a hybrid protein comprised of the yeast Gal4-DNA binding domain fused to the ligand binding domain of human RORγ, and a second vector comprising the firefly luciferase cDNA functionally linked to the upstream activation sequence (UAS) of yeast Gal4. A suspension of RORγ Reporter Cells was prepared using the protocol and culture medium provided in the kit product, and 100 μl of the Reporter Cell suspension was then dispensed into wells of a white, collagen-treated, 96-well assay plate. Concentrated stocks of test compounds were prepared in DMSO, then further diluted using media provided in the kit to generate ‘2×-concentration’ treatment media. 100 μl of medium for each respective treatment concentration dispensed into triplicate assay wells, thereby combining with the reporter cells. All media formulations contained 10% charcoal stripped Fetal Bovine Serum, but are otherwise proprietary to INDIGO Biosciences. Final treatment concentrations for each test compound were 1,000 nM and 100 nM, each with 0.1% residual DMSO. Separate control treatments were media supplemented with vehicle only (0.1% DMSO) to determine the constitutive level of RORγ activity in the reporter cells, and the reference inverse-agonist ursolic acid (f.c. 6,000 nM to 8.2 nM in 3-fold decrements) to establish a positive control inverse-agonist dose response. Assay plates were placed in a 37° C., 5% CO2, 85% humidity incubator for 24 hour. Treatment media were then discarded, 100 μl of luciferase detection reagent was added to each well, and relative light units (RLUs) were quantified from each assay well using a plate reading luminometer. Values of average RLU+/−standard deviation were computed for all treatment sets, followed by the calculations of fold-reduction: [Average RLUVehicle/Average RLUTest Cmpd]. Percent-reduction of RORγ activity in response to respective test compound treatments was calculated: [100*(1−[Ave RLUTest Cmpd/Ave RLUVehicle)] where the theoretical minimum reduction (0% reduction) derives from Vehicle treatment only, no treatment compound.

Compound | pIC50 [1] | Gal4 activity range @ 1 μM (% inhibition) [2] | Gal4 activity range @ 0.1 μM (% inhibition) [2]
COc1ccc(Cn2ccc3c(N4CCCC4c4ccc(C(F)(F)F)cc4)ncnc32)cc1OC (stereo not shown) [Example 69, 7-[(3,4-dimethoxyphenyl)methyl]-4-[2-[4-(trifluoromethyl)phenyl]pyrrolidin-1-yl]pyrrolo[2,3-d]pyrimidine] | > 6.00 | >50 % inhibition | 
CC1(CNc2ncnc(N3CCOC[C@@H]3c3ccc(C(F)(F)F)cc3)c2F)COC1 [Example 235, 5-fluoro-N-[(3-methyloxetan-3-yl)methyl]-6-[(3S)-3-[4-(trifluoromethyl)phenyl]morpholin-4-yl]pyrimidin-4-amine] | > 5.70 | >50 % inhibition | >0 % inhibition
O=C(O)Cc1ccc(CNc2ncnc(N3CCOCC3c3ccccc3)c2F)cc1 (stereo not shown) [Example 276, 2-[4-[[[5-fluoro-6-(3-phenylmorpholin-4-yl)pyrimidin-4-yl]amino]methyl]phenyl]acetic acid] | > 5.70 | >20 % inhibition | >0 % inhibition
Fc1c(NCc2ccc(Cc3nnn[nH]3)cc2)ncnc1N1CCOC[C@@H]1c1ccc(OC(F)(F)F)cc1 [Example 246, 5-fluoro-N-[[4-(1H-tetrazol-5-ylmethyl)phenyl]methyl]-6-[(3S)-3-[4-(trifluoromethoxy)phenyl]morpholin-4-yl]pyrimidin-4-amine] | > 6.30 | >80 % inhibition | >20 % inhibition
CNC(=O)[C@@H](CC(C)(C)C)N(C)c1ncnc(N2CCCC2c2ccc(C(F)(F)F)cc2)c1F (stereo partly drawn) [Example 31, (2R)-2-[[5-fluoro-6-[2-[4-(trifluoromethyl)phenyl]pyrrolidin-1-yl]pyrimidin-4-yl]-methyl-amino]-N,4,4-trimethyl-pentanamide] | > 5.00 | >0 % inhibition | 
O=S(=O)(Nc1ccc(CNc2ncnc(N3CCOC[C@@H]3c3ccc(C(F)(F)F)cc3)c2F)cc1)C(F)(F)F [Example 291, 1,1,1-trifluoro-N-[4-[[[5-fluoro-6-[(3S)-3-[4-(trifluoromethyl)phenyl]morpholin-4-yl]pyrimidin-4-yl]amino]methyl]phenyl] methanesulfonamide] | > 6.00 | >50 % inhibition | >0 % inhibition
OC1(CNc2ncnc(N3CCC[C@@H]3c3ccc(C(F)(F)F)cc3)c2F)CCSCC1 [Example 169, 4-[[[5-fluoro-6-[(2R)-2-[4-(trifluoromethyl)phenyl]pyrrolidin-1-yl]pyrimidin-4-yl]amino]methyl]tetrahydrothiopyran-4-o1] | > 6.30 |  | >0 % inhibition
Fc1c(NCc2ccc(C(F)(F)F)nc2)ncnc1N1CCCC1c1ccc(C(F)(F)F)cc1 (stereo not shown) [Example 126, 5-fluoro-6-[2-[4-(trifluoromethyl)phenyl]pyrrolidin-1-yl]-N-[[6-(trifluoromethyl)-3-pyridyl]methyl]pyrimidin-4-amine] | > 5.70 | >50 % inhibition | >20 % inhibition
O=C(O)CC1CCC(CNc2ncnc(N3CCOC[C@@H]3c3ccc(C(F)(F)F)cc3)c2F)CC1 (stereo partly drawn) [Example 205, 2-[4-[[[5-fluoro-6-[(3S)-3-[4-(trifluoromethyl)phenyl]morpholin-4-yl]pyrimidin-4-yl]amino]methyl]cyclohexyl]acetic acid] | > 6.30 | >80 % inhibition | >50 % inhibition
COC1(CNc2ncnc(N3CCCC3c3ccc(C(F)(F)F)cc3)c2F)CCOCC1 (stereo not shown) [Example 111, 5-fluoro-N-[(4-methoxytetrahydropyran-4-yl)methyl]-6-[2-[4-(trifluoromethyl)phenyl]pyrrolidin-1-yl]pyrimidin-4-amine] | > 6.30 | >80 % inhibition | >50 % inhibition
OCC1(CNc2ncnc(N3CC(F)(F)CC3c3ccc(C(F)(F)F)cc3)c2F)COC1 (stereo not shown) [Example 261, [3-[[[6-[4,4-difluoro-2-[4-(trifluoromethyl)phenyl]pyrrolidin-1-yl]-5-fluoro-pyrimidin-4-yl]amino]methyl]oxetan-3-yl]methanol] | > 6.00 | >80 % inhibition | >20 % inhibition
O=S1(=O)CCC(O)(CNc2ncnc(N3CCC[C@@H]3c3ccc(C(F)(F)F)cc3)c2F)CC1 [Example 223, 4-[[[5-fluoro-6-[(2R)-2-[4-(trifluoromethyl)phenyl]pyrrolidin-1-yl]pyrimidin-4-yl]amino]methyl]-1,1-dioxo-thian-4-ol] | > 6.30 | >80 % inhibition | >50 % inhibition
COc1ccc(CNc2ncnc(N3CCCC3c3ccc(C(F)(F)F)cc3)c2F)cc1OC (stereo not shown) [Example 53, N-[(3,4-dimethoxyphenyl)methyl]-5-fluoro-6-[2-[4-(trifluoromethyl)phenyl]pyrrolidin-1-yl]pyrimidin-4-amine] | > 6.00 | >20 % inhibition | 
O=S1(=O)CCC(O)(CNc2ncnc(N3CCOC[C@@H]3c3ccc(C(F)(F)F)cc3)c2F)CC1 [Example 234, 4-[[[5-fluoro-6-[(3S)-3-[4-(trifluoromethyl)phenyl]morpholin-4-yl]pyrimidin-4-yl]amino]methyl]-1,1-dioxo-thian-4-ol] | > 6.00 | >50 % inhibition | >0 % inhibition
CC1CCC(CNc2ncnc(N3CCCC3c3ccc(C(F)(F)F)cc3)c2F)CC1 (stereo not shown) [Example 93, 5-fluoro-N-[(4-methylcyclohexyl)methyl]-6-[2-[4-(trifluoromethyl)phenyl]pyrrolidin-1-yl]pyrimidin-4-amine] | > 6.30 | >50 % inhibition | >0 % inhibition
Cn1cc(CNc2ncnc(N3CCCC3c3ccc(C(F)(F)F)cc3)c2F)cn1 (stereo not shown) [Example 106, 5-fluoro-N-[(1-methylpyrazo1-4-yl)methyl]-6-[2-[4-(trifluoromethyl)phenyl]pyrrolidin-1-yl]pyrimidin-4-amine] | > 5.00 | >20 % inhibition | 
CC(=O)N1CCC(CNc2ncnc(N3CCOC[C@@H]3c3ccc(C(F)(F)F)cc3)c2F)CC1 [Example 233, 1-[4-[[[5-fluoro-6-[(3S)-3-[4-(trifluoromethyl)phenyl]morpholin-4-yl]pyrimidin-4-yl]amino]methyl]-1-piperidyl]ethanone] | > 6.30 | >80 % inhibition | >20 % inhibition
CS(=O)(=O)N1CCC(CNc2ncnc(N3CCOCC3c3ccccc3)c2F)CC1 (stereo not shown) [Example 274, 5-fluoro-N-[(1-methylsulfonyl-4-piperidyl)methyl]-6-(3-phenylmorpholin-4-yl)pyrimidin-4-amine] | > 5.70 | >50 % inhibition | >20 % inhibition
